Experimental data published in paper PMC5564600 (Oncotarget, 2017).

Experiments:
Experiment in all cases: biochemical
Assay type in all cases: binding
panel of 442 kinases [1] = target: T1, panel of 442 kinases (Homo sapiens, UniProt P00519, E255K); settings: ABL1(E255K)-phosphorylated; for remaining activity at 1 µM: read-out: % of control at 1 µM
T1 construct: purchased Ambit Biosciences (scanMAXX KINOMEscan)

panel of 442 kinases [2] = target: T2, panel of 442 kinases (Homo sapiens, UniProt P0C1S8); settings: kinase WEE2; for remaining activity at 1 µM: read-out: WEE2 (% of control at 1 µM)
T2 construct: purchased Ambit Biosciences (scanMAXX KINOMEscan)

panel of 442 kinases [3] = target: T3, panel of 442 kinases (Homo sapiens, UniProt Q13976); settings: kinase PRKG1; for remaining activity at 1 µM: read-out: PRKG1 (% of control at 1 µM)
T3 construct: purchased Ambit Biosciences (scanMAXX KINOMEscan)
T3 sequence (Q13976 1-671): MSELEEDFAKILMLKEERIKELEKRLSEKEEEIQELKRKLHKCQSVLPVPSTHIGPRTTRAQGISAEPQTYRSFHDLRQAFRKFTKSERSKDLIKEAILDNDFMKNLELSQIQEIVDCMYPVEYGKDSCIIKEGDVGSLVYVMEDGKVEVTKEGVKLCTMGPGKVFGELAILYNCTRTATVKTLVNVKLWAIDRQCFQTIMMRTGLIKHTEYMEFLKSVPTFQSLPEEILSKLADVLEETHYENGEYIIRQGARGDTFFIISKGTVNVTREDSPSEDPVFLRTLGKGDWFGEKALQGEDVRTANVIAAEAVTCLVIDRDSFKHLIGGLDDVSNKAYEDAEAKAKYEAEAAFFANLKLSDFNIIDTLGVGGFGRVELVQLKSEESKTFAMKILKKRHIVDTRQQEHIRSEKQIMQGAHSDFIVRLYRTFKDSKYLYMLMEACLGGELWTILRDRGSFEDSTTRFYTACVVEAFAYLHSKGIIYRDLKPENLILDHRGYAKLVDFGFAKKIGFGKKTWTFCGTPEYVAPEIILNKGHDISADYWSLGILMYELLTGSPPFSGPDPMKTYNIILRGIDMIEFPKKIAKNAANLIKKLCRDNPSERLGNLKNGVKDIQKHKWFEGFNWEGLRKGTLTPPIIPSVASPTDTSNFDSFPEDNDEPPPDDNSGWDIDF

panel of 442 kinases [4] = target: T4, panel of 442 kinases (Homo sapiens, UniProt Q8N752); settings: CSNK1A1L; for remaining activity at 1 µM: read-out: % of control at 1 µM
T4 construct: purchased Ambit Biosciences (scanMAXX KINOMEscan)
T4 sequence (Q8N752 1-337): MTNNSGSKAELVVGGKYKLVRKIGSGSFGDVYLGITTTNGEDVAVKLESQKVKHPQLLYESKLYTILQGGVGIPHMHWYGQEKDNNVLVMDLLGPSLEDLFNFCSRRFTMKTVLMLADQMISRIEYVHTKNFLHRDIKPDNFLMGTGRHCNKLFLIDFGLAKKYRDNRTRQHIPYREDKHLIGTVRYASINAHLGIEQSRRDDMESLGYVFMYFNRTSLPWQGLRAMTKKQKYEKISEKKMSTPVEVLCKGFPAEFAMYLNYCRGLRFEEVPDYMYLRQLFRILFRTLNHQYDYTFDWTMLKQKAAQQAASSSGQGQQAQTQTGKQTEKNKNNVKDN

panel of 442 kinases [5] = target: T5, panel of 442 kinases (Homo sapiens, UniProt Q96L34); settings: kinase MARK4; for remaining activity at 1 µM: read-out: % of control at 1 µM
T5 construct: purchased Ambit Biosciences (scanMAXX KINOMEscan)
T5 sequence (Q96L34 1-752): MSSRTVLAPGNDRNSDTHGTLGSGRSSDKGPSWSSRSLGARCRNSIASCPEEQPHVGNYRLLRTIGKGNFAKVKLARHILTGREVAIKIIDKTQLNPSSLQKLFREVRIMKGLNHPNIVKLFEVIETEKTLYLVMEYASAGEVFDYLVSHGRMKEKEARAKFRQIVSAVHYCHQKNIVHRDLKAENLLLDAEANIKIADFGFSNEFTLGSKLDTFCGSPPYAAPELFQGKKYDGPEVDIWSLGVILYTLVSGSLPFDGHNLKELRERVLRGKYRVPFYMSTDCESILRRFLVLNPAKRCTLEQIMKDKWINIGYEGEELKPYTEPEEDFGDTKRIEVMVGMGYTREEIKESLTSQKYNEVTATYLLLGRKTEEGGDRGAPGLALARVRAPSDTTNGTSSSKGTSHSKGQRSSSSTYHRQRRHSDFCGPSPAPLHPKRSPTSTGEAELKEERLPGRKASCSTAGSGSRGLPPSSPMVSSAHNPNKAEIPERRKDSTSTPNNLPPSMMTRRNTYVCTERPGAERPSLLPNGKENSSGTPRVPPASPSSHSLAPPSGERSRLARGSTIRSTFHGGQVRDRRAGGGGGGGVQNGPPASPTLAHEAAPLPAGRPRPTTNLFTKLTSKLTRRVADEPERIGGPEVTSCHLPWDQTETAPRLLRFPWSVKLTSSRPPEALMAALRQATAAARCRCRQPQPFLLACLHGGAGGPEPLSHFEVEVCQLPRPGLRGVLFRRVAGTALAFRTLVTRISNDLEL

panel of 442 kinases [6] = target: T6, panel of 442 kinases (Homo sapiens, UniProt Q9NRH2); settings: kinase SNRK; for remaining activity at 1 µM: read-out: SNRK (% of control at 1 µM)
T6 construct: purchased Ambit Biosciences (scanMAXX KINOMEscan)
T6 sequence (Q9NRH2 1-765): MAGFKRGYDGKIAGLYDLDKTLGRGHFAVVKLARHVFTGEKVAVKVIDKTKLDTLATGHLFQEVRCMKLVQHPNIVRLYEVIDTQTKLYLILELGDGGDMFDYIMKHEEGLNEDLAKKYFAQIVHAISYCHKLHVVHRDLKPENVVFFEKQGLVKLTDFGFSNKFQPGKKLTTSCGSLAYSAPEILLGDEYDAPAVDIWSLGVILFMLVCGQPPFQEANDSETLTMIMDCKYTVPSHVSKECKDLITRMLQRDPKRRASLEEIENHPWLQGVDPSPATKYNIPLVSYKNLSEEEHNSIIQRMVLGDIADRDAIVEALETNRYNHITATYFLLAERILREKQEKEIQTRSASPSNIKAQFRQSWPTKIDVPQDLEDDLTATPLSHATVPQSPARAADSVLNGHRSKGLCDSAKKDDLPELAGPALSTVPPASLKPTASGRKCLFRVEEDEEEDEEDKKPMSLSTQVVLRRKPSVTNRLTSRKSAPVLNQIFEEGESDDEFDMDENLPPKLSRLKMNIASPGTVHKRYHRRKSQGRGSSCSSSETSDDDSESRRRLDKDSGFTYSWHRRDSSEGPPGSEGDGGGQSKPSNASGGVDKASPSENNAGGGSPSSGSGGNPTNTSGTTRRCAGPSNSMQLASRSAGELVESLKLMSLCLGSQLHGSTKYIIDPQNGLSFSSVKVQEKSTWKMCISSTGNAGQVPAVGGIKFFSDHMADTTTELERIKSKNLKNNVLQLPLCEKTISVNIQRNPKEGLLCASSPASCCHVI

panel of 442 kinases [7] = target: T7, panel of 442 kinases (Homo sapiens, UniProt Q9NSY1); settings: BIKE; for remaining activity at 1 µM: read-out: % of control at 1 µM
T7 construct: purchased Ambit Biosciences (scanMAXX KINOMEscan)

[8] = 10 µM, read-out: % of control at 10 µM

T1 sequence (P00519 whole entry E255K): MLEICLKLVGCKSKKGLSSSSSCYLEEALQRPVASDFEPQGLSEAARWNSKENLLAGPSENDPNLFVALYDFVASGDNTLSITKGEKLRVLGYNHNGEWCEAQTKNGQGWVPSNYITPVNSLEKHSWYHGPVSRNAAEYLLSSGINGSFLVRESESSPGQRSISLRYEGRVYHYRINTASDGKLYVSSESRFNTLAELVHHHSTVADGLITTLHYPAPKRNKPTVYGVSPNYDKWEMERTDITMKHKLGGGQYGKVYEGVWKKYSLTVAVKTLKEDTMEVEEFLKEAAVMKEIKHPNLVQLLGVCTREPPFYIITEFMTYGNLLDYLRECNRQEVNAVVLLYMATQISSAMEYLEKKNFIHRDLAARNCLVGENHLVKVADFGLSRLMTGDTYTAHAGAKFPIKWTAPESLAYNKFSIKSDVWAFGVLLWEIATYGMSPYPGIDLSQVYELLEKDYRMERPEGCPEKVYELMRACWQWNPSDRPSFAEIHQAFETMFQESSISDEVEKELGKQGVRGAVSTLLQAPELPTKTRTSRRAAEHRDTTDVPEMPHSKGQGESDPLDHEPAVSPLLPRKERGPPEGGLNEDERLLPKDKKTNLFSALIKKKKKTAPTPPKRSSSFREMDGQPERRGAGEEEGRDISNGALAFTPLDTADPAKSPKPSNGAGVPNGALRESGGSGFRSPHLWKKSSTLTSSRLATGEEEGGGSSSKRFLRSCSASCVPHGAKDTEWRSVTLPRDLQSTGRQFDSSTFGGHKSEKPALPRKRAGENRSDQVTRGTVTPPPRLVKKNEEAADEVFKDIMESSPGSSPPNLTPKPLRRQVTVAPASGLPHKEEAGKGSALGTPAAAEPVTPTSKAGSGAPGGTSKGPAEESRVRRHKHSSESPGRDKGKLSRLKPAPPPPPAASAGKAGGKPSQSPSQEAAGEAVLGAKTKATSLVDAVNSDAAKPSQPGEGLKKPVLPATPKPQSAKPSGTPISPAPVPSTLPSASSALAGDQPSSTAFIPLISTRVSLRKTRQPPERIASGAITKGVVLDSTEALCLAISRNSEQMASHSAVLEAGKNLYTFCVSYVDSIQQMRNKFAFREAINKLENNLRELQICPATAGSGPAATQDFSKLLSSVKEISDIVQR
T2 sequence (P0C1S8 whole entry): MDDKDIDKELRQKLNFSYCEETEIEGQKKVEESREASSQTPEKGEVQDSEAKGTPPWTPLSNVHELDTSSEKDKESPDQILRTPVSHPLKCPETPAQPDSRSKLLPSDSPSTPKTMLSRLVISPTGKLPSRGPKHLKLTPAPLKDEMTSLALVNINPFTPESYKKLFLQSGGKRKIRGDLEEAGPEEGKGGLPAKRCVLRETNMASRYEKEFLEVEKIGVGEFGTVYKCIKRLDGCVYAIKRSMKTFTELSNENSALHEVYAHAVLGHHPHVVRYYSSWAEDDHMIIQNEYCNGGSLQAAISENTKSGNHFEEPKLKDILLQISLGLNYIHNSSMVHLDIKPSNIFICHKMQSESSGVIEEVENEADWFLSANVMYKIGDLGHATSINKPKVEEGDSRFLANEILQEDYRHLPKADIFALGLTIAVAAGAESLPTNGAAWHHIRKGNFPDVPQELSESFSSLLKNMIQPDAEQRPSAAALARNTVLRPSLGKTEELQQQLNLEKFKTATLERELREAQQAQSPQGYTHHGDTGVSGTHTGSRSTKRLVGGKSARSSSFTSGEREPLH
T7 sequence (Q9NSY1 whole entry): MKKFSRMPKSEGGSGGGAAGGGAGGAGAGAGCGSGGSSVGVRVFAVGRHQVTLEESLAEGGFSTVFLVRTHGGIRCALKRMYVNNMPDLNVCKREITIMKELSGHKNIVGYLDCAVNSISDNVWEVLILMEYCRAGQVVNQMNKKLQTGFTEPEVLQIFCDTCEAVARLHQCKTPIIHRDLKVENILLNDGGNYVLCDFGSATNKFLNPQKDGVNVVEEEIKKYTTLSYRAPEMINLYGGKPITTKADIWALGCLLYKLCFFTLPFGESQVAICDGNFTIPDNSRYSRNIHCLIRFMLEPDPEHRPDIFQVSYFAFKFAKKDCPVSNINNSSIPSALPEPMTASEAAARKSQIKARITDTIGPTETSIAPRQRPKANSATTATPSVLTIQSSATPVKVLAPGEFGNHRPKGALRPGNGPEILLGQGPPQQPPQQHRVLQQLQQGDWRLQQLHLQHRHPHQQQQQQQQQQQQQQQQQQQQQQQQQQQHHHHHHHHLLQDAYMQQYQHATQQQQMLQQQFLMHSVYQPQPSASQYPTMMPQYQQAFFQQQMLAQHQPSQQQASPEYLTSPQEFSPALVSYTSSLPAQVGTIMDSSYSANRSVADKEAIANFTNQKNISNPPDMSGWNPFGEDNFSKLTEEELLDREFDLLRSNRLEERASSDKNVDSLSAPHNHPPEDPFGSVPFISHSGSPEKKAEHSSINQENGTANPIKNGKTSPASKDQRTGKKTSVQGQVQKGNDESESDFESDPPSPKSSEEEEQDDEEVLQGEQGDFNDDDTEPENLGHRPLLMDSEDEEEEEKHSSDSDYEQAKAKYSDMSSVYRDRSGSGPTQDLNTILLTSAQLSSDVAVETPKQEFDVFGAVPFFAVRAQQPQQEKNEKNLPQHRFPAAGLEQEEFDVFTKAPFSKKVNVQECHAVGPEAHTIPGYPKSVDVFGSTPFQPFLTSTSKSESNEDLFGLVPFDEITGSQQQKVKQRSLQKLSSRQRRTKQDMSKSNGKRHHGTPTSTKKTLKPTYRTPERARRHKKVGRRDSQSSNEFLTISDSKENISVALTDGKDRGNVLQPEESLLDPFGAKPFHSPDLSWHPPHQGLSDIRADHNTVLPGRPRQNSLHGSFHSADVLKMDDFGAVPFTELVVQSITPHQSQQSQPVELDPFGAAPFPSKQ

Molecule `Nc1cc(C(F)(F)F)c(-c2cc(N3CCOCC3)nc(N3CCOCC3)n2)cn1` [Buparlisib] has a remaining activity at 1 µM (panel of 442 kinases [1]) of 74%, a remaining activity at 10 µM (panel of 442 kinases [1]; [8]) of 96% and a remaining activity at 1 µM (panel of 442 kinases [2]) of 100%. It also gave a remaining activity at 10 µM (panel of 442 kinases [2]; 10 µM, read-out: WEE2 (% of control at 10 µM)) of 100%, a remaining activity at 1 µM (panel of 442 kinases [3]) of 77% and a remaining activity at 10 µM (panel of 442 kinases [3]; 10 µM, read-out: PRKG1 (% of control at 10 µM)) of 100%. For the same molecule, the remaining activity at 1 µM (panel of 442 kinases [4]) was 100%, the remaining activity at 10 µM (panel of 442 kinases [4]; [8]) was 100% and the remaining activity at 1 µM (panel of 442 kinases [5]) was 100%. For the same molecule, the remaining activity at 10 µM (panel of 442 kinases [5]; [8]) was 91%, the remaining activity at 1 µM (panel of 442 kinases [6]) was 90% and the remaining activity at 10 µM (panel of 442 kinases [6]; 10 µM, read-out: SNRK (% of control at 10 µM)) was 100%. For the same molecule, the remaining activity at 1 µM (panel of 442 kinases [7]) was 98% and the remaining activity at 10 µM (panel of 442 kinases [7]; [8]) was 100%.

In the case of `Cn1c(=O)n(-c2ccc(C(C)(C)C#N)cc2)c2c3cc(-c4cnc5ccccc5c4)ccc3ncc21` [Dactolisib, 2-methyl-2-[4-(3-methyl-2-oxo-8-quinolin-3-yl-2,3-dihydroimidazo[4,5-c]quinolin-1-yl)-phenyl] propionitrile], the remaining activity at 1 µM (panel of 442 kinases [1]) is reported as 79%, the remaining activity at 1 µM (panel of 442 kinases [2]) is reported as 100% and the remaining activity at 1 µM (panel of 442 kinases [3]) is reported as 95%. The remaining activity at 1 µM (panel of 442 kinases [4]) was 100%, the remaining activity at 1 µM (panel of 442 kinases [5]) was 61% and the remaining activity at 1 µM (panel of 442 kinases [6]) was 71%. For the same molecule, the remaining activity at 1 µM (panel of 442 kinases [7]) was 53%.

`COc1ncc(-c2ccc3nccc(-c4ccnnc4)c3c2)cc1NS(=O)(=O)c1ccc(F)cc1F` [Omipalisib] gave a remaining activity at 1 µM (panel of 442 kinases [1]) of 95%, a remaining activity at 1 µM (panel of 442 kinases [2]) of 84% and a remaining activity at 1 µM (panel of 442 kinases [3]) of 100%. It also gave a remaining activity at 1 µM (panel of 442 kinases [4]) of 100%, a remaining activity at 1 µM (panel of 442 kinases [5]) of 83% and a remaining activity at 1 µM (panel of 442 kinases [6]) of 88%. For the same molecule, the remaining activity at 1 µM (panel of 442 kinases [7]) was 82%.

Work on `FC(F)c1nc2ccccc2n1-c1nc(N2CCOCC2)nc(N2CCOCC2)n1` [ZSTK474, 2-(difluoromethyl)-1-[4,6-di(4-morpholinyl)-1,3,5-triazin-2-yl]-1H-benzimidazole] yielded a remaining activity at 1 µM (panel of 442 kinases [1]) of 100%, a remaining activity at 1 µM (panel of 442 kinases [2]) of 96% and a remaining activity at 1 µM (panel of 442 kinases [3]) of 100%. It also gave a remaining activity at 1 µM (panel of 442 kinases [4]) of 100%, a remaining activity at 1 µM (panel of 442 kinases [5]) of 100% and a remaining activity at 1 µM (panel of 442 kinases [6]) of 100%. For the same molecule, the remaining activity at 1 µM (panel of 442 kinases [7]) was 53%.
